Experimental data reported in ChEMBL document CHEMBL3739267, “Synthesis of 2,6-dicarbethoxy-3,5-diaryltetrahydro-1,4-thiazine-1,1-dioxide derivatives as potent anticonvulsant agents” (Eur J Med Chem, 2015).
Activity calls are given as the source filed them. No cut-off for these calls is given here.

Assays:
Mus musculus [1] = experiment: Anticonvulsant activity in ip dosed Swiss albino mouse assessed as reduction of maximal electroshock-induced seizure after 0.5 hrs; type: functional; conditions: read-out: MED
Mus musculus [2] = experiment: Anticonvulsant activity in ip dosed Swiss albino mouse assessed as reduction of maximal electroshock-induced seizure after 4 hrs; type: functional; conditions: read-out: MED
Mus musculus [3] = experiment: Anticonvulsant activity in ip dosed Swiss albino mouse assessed as reduction of subcutaneous pentylenetetrazole-induced seizure after 0.5 hrs; type: functional; conditions: read-out: MED
Mus musculus [4] = experiment: Anticonvulsant activity in ip dosed Swiss albino mouse assessed as reduction of subcutaneous pentylenetetrazole-induced seizure after 4 hrs; type: functional; conditions: read-out: MED
[5] = (§1) Neurotoxicity in ip dosed Swiss albino mouse assessed as inability of animal to maintain equilibrium on rod after 0.5 hrs by rotarod test; type: toxicity, organism-based; conditions: Swiss albino, in vivo
Mus musculus [6] = experiment: Neurotoxicity in Swiss albino mouse assessed as inability of animal to maintain equilibrium on rod at 300 mg/kg, ip after 0.5 hrs by rotarod test; type: toxicity, organism-based; conditions: in vivo
Mus musculus [7] = experiment: Neurotoxicity in Swiss albino mouse assessed as inability of animal to maintain equilibrium on rod at 300 mg/kg, ip after 4 hrs by rotarod test; type: toxicity, organism-based; conditions: in vivo
Mus musculus [8] = experiment: Anticonvulsant activity in ip dosed Swiss albino mouse assessed as reduction of maximal electroshock-induced seizure; type: functional
Mus musculus [9] = experiment: Anticonvulsant activity in ip dosed Swiss albino mouse assessed as reduction of subcutaneous pentylenetetrazole-induced seizure; type: functional
Mus musculus [10] = experiment: Protective index, ratio of TD50 for ip dosed Swiss albino mouse assessed as inability of animal to maintain equilibrium on rod after 0.5 hrs by rotarod test to ED50 for Swiss albino mouse assessed as reduction of maximal electroshock-induced seizure; type: functional
Mus musculus [11] = experiment: Protective index, ratio of TD50 for ip dosed Swiss albino mouse assessed as inability of animal to maintain equilibrium on rod after 0.5 hrs by rotarod test to ED50 for Swiss albino mouse assessed as subcutaneous pentylenetetrazole-induced seizure; type: functional
Mus musculus [12] = experiment: Anticonvulsant activity in Swiss albino mouse assessed as reduction of subcutaneous pentylenetetrazole-induced seizure at 300 mg/kg, ip after 4 hrs; type: functional, organism-based
Mus musculus [13] = experiment: Neurotoxicity in ip dosed Swiss albino mouse assessed as inability of animal to maintain equilibrium on rod after 4 hrs by rotarod test; type: toxicity, organism-based; conditions: in vivo
Mus musculus [14] = experiment: as §1; type: toxicity, organism-based; conditions: in vivo, 0.5 h
Mus musculus [15] = experiment: Anticonvulsant activity in Swiss albino mouse assessed as reduction of subcutaneous pentylenetetrazole-induced seizure at 300 mg/kg, ip after 0.5 hrs; type: functional, organism-based
Mus musculus [16] = experiment: Anticonvulsant activity in Swiss albino mouse assessed as reduction of maximal electroshock-induced seizure at 300 mg/kg, ip after 0.5 hrs; type: functional, organism-based
Mus musculus [17] = experiment: Anticonvulsant activity in Swiss albino mouse assessed as reduction of maximal electroshock-induced seizure at 300 mg/kg, ip after 4 hrs; type: functional, organism-based

Row | Compound | minimal effective dose (Mus musculus [1]) | minimal effective dose (Mus musculus [2]) | minimal effective dose (Mus musculus [3]) | minimal effective dose (Mus musculus [4]) | TD50 at 0.5 h [5] | Activity (Mus musculus [6]) | Activity (Mus musculus [7]) | ED50 (Mus musculus [8]) | ED50 (Mus musculus [9]) | Ratio TD50/ED50 (Mus musculus [10]) | Ratio TD50/ED50 (Mus musculus [11]) | Activity (Mus musculus [12]) | MTC (Mus musculus [13]) | MTC (Mus musculus [14]) | Activity (Mus musculus [15]) | Activity (Mus musculus [16]) | Activity (Mus musculus [17])
1 | CCOC(=O)C1C(c2cc3ccccc3nc2Cl)NC(c2cc3ccccc3nc2Cl)C(C(=O)OCC)S1(=O)=O (stereo not drawn) | 30 mg/kg | 100 mg/kg | 300 mg/kg | 300 mg/kg | 128 mg/kg | Non-toxic | Non-toxic | 12.4 mg/kg | 62.7 mg/kg | 10.3 | 2 | – | – | – | – | – | –
2 | CCOC(=O)C1C(c2ccc(OC)c(OC)c2)NC(c2ccc(OC)c(OC)c2)C(C(=O)OCC)S1(=O)=O (stereo not drawn) | 100 mg/kg | 300 mg/kg | 300 mg/kg | – | – | Non-toxic | – | – | – | – | – | inactive | 300 mg/kg | – | – | – | –
3 | CCOC(=O)C1C(c2ccc([N+](=O)[O-])cc2)NC(c2ccc([N+](=O)[O-])cc2)C(C(=O)OCC)S1(=O)=O (stereo not drawn) | 30 mg/kg | 100 mg/kg | 300 mg/kg | 300 mg/kg | 190 mg/kg | Non-toxic | Non-toxic | 11.4 mg/kg | 73.2 mg/kg | 16.7 | 2.6 | – | – | – | – | – | –
4 | CCOC(=O)C1C(c2ccc[nH]2)NC(c2ccc[nH]2)C(C(=O)OCC)S1(=O)=O (stereo not drawn) | 100 mg/kg | 300 mg/kg | 300 mg/kg | – | – | – | Non-toxic | – | – | – | – | inactive | – | 300 mg/kg | – | – | –
5 | CCOC(=O)C1C(c2ccccc2)NC(c2ccccc2)C(C(=O)OCC)S1(=O)=O (stereo not drawn) | 30 mg/kg | 100 mg/kg | 300 mg/kg | 300 mg/kg | 131 mg/kg | Non-toxic | Non-toxic | 14.8 mg/kg | 58.6 mg/kg | 8.8 | 2.2 | – | – | – | – | – | –
6 | CCC1(c2ccccc2)C(=O)NC(=O)NC1=O [PHENOBARBITAL] | – | – | – | – | 68.2 mg/kg | – | – | 20.6 mg/kg | 13.2 mg/kg | – | – | – | – | – | – | – | –
7 | O=C1NC(=O)C(c2ccccc2)(c2ccccc2)N1 [PHENYTOIN] | 30 mg/kg | 30 mg/kg | 100 mg/kg | – | – | – | – | 9.8 mg/kg | > 300 mg/kg | – | – | inactive | 100 mg/kg | 100 mg/kg | inactive | – | –
8 | CCOC(=O)C1C(c2cccs2)NC(c2cccs2)C(C(=O)OCC)S1(=O)=O (stereo not drawn) | 100 mg/kg | 300 mg/kg | 300 mg/kg | – | – | Non-toxic | – | – | – | – | – | inactive | 300 mg/kg | – | – | – | –
9 | CCOC(=O)C1C(c2cccnc2)NC(c2cccnc2)C(C(=O)OCC)S1(=O)=O (stereo not drawn) | 300 mg/kg | 300 mg/kg | – | – | – | Non-toxic | – | – | – | – | – | inactive | 300 mg/kg | – | inactive | – | –
10 | CCC1(C)CC(=O)NC1=O (stereo not drawn) [ETHOSUXIMIDE] | – | – | 100 mg/kg | 300 mg/kg | – | Non-toxic | Non-toxic | – | – | – | – | – | – | – | – | inactive | inactive
11 | CCOC(=O)C1C(c2ccc(OC)cc2)NC(c2ccc(OC)cc2)C(C(=O)OCC)S1(=O)=O (stereo not drawn) | 100 mg/kg | 300 mg/kg | 300 mg/kg | – | – | Non-toxic | – | – | – | – | – | inactive | 300 mg/kg | – | – | – | –
12 | CCOC(=O)C1C(c2ccsc2)NC(c2ccsc2)C(C(=O)OCC)S1(=O)=O (stereo not drawn) | 100 mg/kg | 300 mg/kg | 300 mg/kg | – | – | Non-toxic | – | – | – | – | – | inactive | 300 mg/kg | – | – | – | –
13 | CCOC(=O)C1C(c2ccccc2Cl)NC(c2ccccc2Cl)C(C(=O)OCC)S1(=O)=O (stereo not drawn) | 100 mg/kg | 300 mg/kg | 300 mg/kg | – | – | Non-toxic | Non-toxic | – | – | – | – | inactive | – | – | – | – | –
14 | CCOC(=O)C1C(c2ccc3c(c2)OCO3)NC(c2ccc3c(c2)OCO3)C(C(=O)OCC)S1(=O)=O (stereo not drawn) | 30 mg/kg | 100 mg/kg | 300 mg/kg | 300 mg/kg | 248 mg/kg | Non-toxic | Non-toxic | 27.4 mg/kg | 220 mg/kg | 9 | 1.1 | – | – | – | – | – | –
15 | NC(=O)N1c2ccccc2C=Cc2ccccc21 [CARBAMAZEPINE] | – | – | – | – | – | – | – | 11.4 mg/kg | > 100 mg/kg | – | – | – | – | – | – | – | –
16 | CCOC(=O)C1C(c2cccc(Cl)c2)NC(c2cccc(Cl)c2)C(C(=O)OCC)S1(=O)=O (stereo not drawn) | 100 mg/kg | 300 mg/kg | 300 mg/kg | – | – | – | Non-toxic | – | – | – | – | inactive | – | 300 mg/kg | – | – | –
17 | CCOC(=O)C1C(c2ccco2)NC(c2ccco2)C(C(=O)OCC)S1(=O)=O (stereo not drawn) | 300 mg/kg | 300 mg/kg | – | – | – | Non-toxic | – | – | – | – | – | inactive | 300 mg/kg | – | inactive | – | –
18 | CCOC(=O)C1C(c2ccc(Cl)cc2)NC(c2ccc(Cl)cc2)C(C(=O)OCC)S1(=O)=O (stereo not drawn) | 30 mg/kg | 30 mg/kg | 100 mg/kg | 300 mg/kg | 289 mg/kg | Non-toxic | Non-toxic | 10.2 mg/kg | 50.5 mg/kg | 28.3 | 5.7 | – | – | – | – | – | –
19 | CCCC(CCC)C(=O)O [VALPROIC ACID] | – | – | – | – | – | – | – | – | 149 mg/kg | – | – | – | – | – | – | – | –
20 | CCOC(=O)C1C(c2ccc(C)cc2)NC(c2ccc(C)cc2)C(C(=O)OCC)S1(=O)=O (stereo not drawn) | 30 mg/kg | 100 mg/kg | 300 mg/kg | 300 mg/kg | 227 mg/kg | Non-toxic | Non-toxic | 14.4 mg/kg | 90.2 mg/kg | 15.7 | 2.5 | – | – | – | – | – | –
21 | CCOC(=O)C1C(c2cc3ccccc3[nH]2)NC(c2cc3ccccc3[nH]2)C(C(=O)OCC)S1(=O)=O (stereo not drawn) | 30 mg/kg | 100 mg/kg | 300 mg/kg | 300 mg/kg | 119 mg/kg | Non-toxic | Non-toxic | 13.2 mg/kg | 56.8 mg/kg | 9 | 2.1 | – | – | – | – | – | –
22 | CCOC(=O)C1C(c2ccccn2)NC(c2ccccn2)C(C(=O)OCC)S1(=O)=O (stereo not drawn) | 300 mg/kg | 300 mg/kg | – | – | – | Non-toxic | – | – | – | – | – | inactive | 300 mg/kg | – | inactive | – | –
